Source: PubChem BioAssay (NCI)
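Compound exposure: 48 hours, 5 concentrations, 96-well plates. Abbreviation: GI50, concentration required for 50% inhibition of growth. TGI is the concentration that stops growth completely.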

Columns and labels:
Experiment in all cases: growth of human tumour cells (NCI), 48 h
786-0 renal = test system: 786-0 renal
A498 renal = test system: A498 renal
A549 NSCLC = test system: A549 NSCLC
ACHN renal = test system: ACHN renal
BT-549 breast = test system: BT-549 breast
CAKI-1 renal = test system: CAKI-1 renal
CCRF-CEM leukemia = test system: CCRF-CEM leukemia
COLO 205 colon = test system: COLO 205 colon
DU-145 prostate = test system: DU-145 prostate
EKVX NSCLC = test system: EKVX NSCLC
HCC-2998 colon = test system: HCC-2998 colon
HCT-116 colon = test system: HCT-116 colon
HCT-15 colon = test system: HCT-15 colon
HL-60(TB) leukemia = test system: HL-60(TB) leukemia
HOP-62 NSCLC = test system: HOP-62 NSCLC
HOP-92 NSCLC = test system: HOP-92 NSCLC
HS 578T breast = test system: HS 578T breast
HT29 colon = test system: HT29 colon
IGROV1 ovarian = test system: IGROV1 ovarian
K-562 leukemia = test system: K-562 leukemia
KM12 colon = test system: KM12 colon
LOX IMVI melanoma = test system: LOX IMVI melanoma
M14 melanoma = test system: M14 melanoma
MALME-3M melanoma = test system: MALME-3M melanoma
MCF7 breast = test system: MCF7 breast
MDA-MB-231 breast = test system: MDA-MB-231 breast
MDA-MB-435 = test system: MDA-MB-435
MOLT-4 leukemia = test system: MOLT-4 leukemia
NCI-H226 lung = test system: NCI-H226 lung
NCI-H23 lung = test system: NCI-H23 lung
NCI-H460 lung = test system: NCI-H460 lung
NCI-H522 lung = test system: NCI-H522 lung
NCI/ADR-RES ovarian = test system: NCI/ADR-RES ovarian
OVCAR-3 ovarian = test system: OVCAR-3 ovarian
OVCAR-4 ovarian = test system: OVCAR-4 ovarian
OVCAR-5 ovarian = test system: OVCAR-5 ovarian
OVCAR-8 ovarian = test system: OVCAR-8 ovarian
PC-3 prostate = test system: PC-3 prostate
RPMI-8226 leukemia = test system: RPMI-8226 leukemia
RXF 393 renal = test system: RXF 393 renal
SF-268 CNS = test system: SF-268 CNS
SF-295 CNS = test system: SF-295 CNS
SF-539 CNS = test system: SF-539 CNS
SK-MEL-2 melanoma = test system: SK-MEL-2 melanoma
SK-MEL-28 melanoma = test system: SK-MEL-28 melanoma
SK-MEL-5 melanoma = test system: SK-MEL-5 melanoma
SK-OV-3 ovarian = test system: SK-OV-3 ovarian
SN12C renal = test system: SN12C renal
SNB-19 CNS = test system: SNB-19 CNS
SNB-75 CNS = test system: SNB-75 CNS
SW-620 colon = test system: SW-620 colon
T-47D breast = test system: T-47D breast
TK-10 renal = test system: TK-10 renal
U251 CNS = test system: U251 CNS
UACC-257 melanoma = test system: UACC-257 melanoma
UACC-62 melanoma = test system: UACC-62 melanoma
UO-31 renal = test system: UO-31 renal

COc1ccc(Nc2ncc(-c3ccccc3)o2)cc1OC
GI50 (786-0 renal): 11.6 µM | TGI (786-0 renal): > 25 µM | GI50 (A498 renal): 7.77 µM | TGI (A498 renal): > 25 µM | GI50 (A549 NSCLC): 15.2 µM | TGI (A549 NSCLC): > 25 µM | GI50 (ACHN renal): 8.59 µM | TGI (ACHN renal): > 25 µM | GI50 (BT-549 breast): 18.6 µM | TGI (BT-549 breast): > 25 µM | GI50 (CAKI-1 renal): 7.02 µM | TGI (CAKI-1 renal): > 25 µM | GI50 (CCRF-CEM leukemia): 13.9 µM | TGI (CCRF-CEM leukemia): > 25 µM | GI50 (COLO 205 colon): 18.4 µM | TGI (COLO 205 colon): > 25 µM | GI50 (DU-145 prostate): 10.7 µM | TGI (DU-145 prostate): > 25 µM | GI50 (EKVX NSCLC): > 25 µM | TGI (EKVX NSCLC): > 25 µM | GI50 (HCC-2998 colon): > 25 µM | TGI (HCC-2998 colon): > 25 µM | GI50 (HCT-116 colon): 9.37 µM | TGI (HCT-116 colon): > 25 µM | GI50 (HCT-15 colon): 10.6 µM | TGI (HCT-15 colon): > 25 µM | GI50 (HL-60(TB) leukemia): 10.9 µM | TGI (HL-60(TB) leukemia): > 19 µM | GI50 (HOP-62 NSCLC): > 25 µM | TGI (HOP-62 NSCLC): > 25 µM | GI50 (HOP-92 NSCLC): 6.04 µM | TGI (HOP-92 NSCLC): > 25 µM | GI50 (HS 578T breast): 8.43 µM | TGI (HS 578T breast): > 25 µM | GI50 (HT29 colon): 16.3 µM | TGI (HT29 colon): > 25 µM | GI50 (IGROV1 ovarian): > 17.1 µM | TGI (IGROV1 ovarian): > 25 µM | GI50 (K-562 leukemia): 8.3 µM | TGI (K-562 leukemia): > 25 µM | GI50 (KM12 colon): 4.35 µM | TGI (KM12 colon): > 25 µM | GI50 (LOX IMVI melanoma): 11.6 µM | TGI (LOX IMVI melanoma): > 25 µM | GI50 (M14 melanoma): > 22.9 µM | TGI (M14 melanoma): > 25 µM | GI50 (MALME-3M melanoma): > 25 µM | TGI (MALME-3M melanoma): > 25 µM | GI50 (MCF7 breast): > 25 µM | TGI (MCF7 breast): > 25 µM | GI50 (MDA-MB-231 breast): > 25 µM | TGI (MDA-MB-231 breast): > 25 µM | GI50 (MDA-MB-435): > 19.5 µM | TGI (MDA-MB-435): > 25 µM | GI50 (MOLT-4 leukemia): 13.6 µM | TGI (MOLT-4 leukemia): > 25 µM | GI50 (NCI-H226 lung): > 20.6 µM | TGI (NCI-H226 lung): > 25 µM | GI50 (NCI-H23 lung): > 25 µM | TGI (NCI-H23 lung): > 25 µM | GI50 (NCI-H460 lung): 13.4 µM | TGI (NCI-H460 lung): > 25 µM | GI50 (NCI-H522 lung): 9.33 µM | TGI (NCI-H522 lung): > 25 µM | GI50 (NCI/ADR-RES ovarian): > 22 µM | TGI (NCI/ADR-RES ovarian): > 25 µM | GI50 (OVCAR-3 ovarian): > 15.6 µM | TGI (OVCAR-3 ovarian): > 25 µM | GI50 (OVCAR-4 ovarian): > 22.2 µM | TGI (OVCAR-4 ovarian): > 25 µM | GI50 (OVCAR-5 ovarian): > 25 µM | TGI (OVCAR-5 ovarian): > 25 µM | GI50 (OVCAR-8 ovarian): 16.2 µM | TGI (OVCAR-8 ovarian): > 25 µM | GI50 (PC-3 prostate): 17.6 µM | TGI (PC-3 prostate): > 25 µM | GI50 (RPMI-8226 leukemia): > 24 µM | TGI (RPMI-8226 leukemia): > 25 µM | GI50 (RXF 393 renal): 6.03 µM | TGI (RXF 393 renal): > 19.5 µM | GI50 (SF-268 CNS): > 17.2 µM | TGI (SF-268 CNS): > 25 µM | GI50 (SF-295 CNS): > 24.2 µM | TGI (SF-295 CNS): > 25 µM | GI50 (SF-539 CNS): 5.34 µM | TGI (SF-539 CNS): > 25 µM | GI50 (SK-MEL-2 melanoma): 18.4 µM | TGI (SK-MEL-2 melanoma): > 25 µM | GI50 (SK-MEL-28 melanoma): > 25 µM | TGI (SK-MEL-28 melanoma): > 25 µM | GI50 (SK-MEL-5 melanoma): > 25 µM | TGI (SK-MEL-5 melanoma): > 25 µM | GI50 (SK-OV-3 ovarian): 12.7 µM | TGI (SK-OV-3 ovarian): > 25 µM | GI50 (SN12C renal): > 21.6 µM | TGI (SN12C renal): > 25 µM | GI50 (SNB-19 CNS): > 25 µM | TGI (SNB-19 CNS): > 25 µM | GI50 (SNB-75 CNS): 5.09 µM | TGI (SNB-75 CNS): > 25 µM | GI50 (SW-620 colon): 14.9 µM | TGI (SW-620 colon): > 25 µM | GI50 (T-47D breast): 24.7 µM | TGI (T-47D breast): > 25 µM | GI50 (TK-10 renal): 6.07 µM | TGI (TK-10 renal): > 25 µM | GI50 (U251 CNS): 11.2 µM | TGI (U251 CNS): > 25 µM | GI50 (UACC-257 melanoma): > 25 µM | TGI (UACC-257 melanoma): > 25 µM | GI50 (UACC-62 melanoma): > 22.3 µM | TGI (UACC-62 melanoma): > 25 µM | GI50 (UO-31 renal): 9.29 µM | TGI (UO-31 renal): > 25 µM
